The values below come from paper PMC9965221, “Antiviral Mechanism of Virucidal Sialic Acid Modified Cyclodextrin” (Pharmaceutics, 2023).

The target of this assay is T1, recombinant HA (A/California/04/2009, Met1-Gln549) (Influenza A virus (A/California/04/2009(H1N1)), UniProt C3W5S1).
T1 construct: Met1-Gln549, His-tagged recombinant, immobilised on anti-His probes
The format is binding.

T1 sequence (C3W5S1 entry or part of it, added parts left off): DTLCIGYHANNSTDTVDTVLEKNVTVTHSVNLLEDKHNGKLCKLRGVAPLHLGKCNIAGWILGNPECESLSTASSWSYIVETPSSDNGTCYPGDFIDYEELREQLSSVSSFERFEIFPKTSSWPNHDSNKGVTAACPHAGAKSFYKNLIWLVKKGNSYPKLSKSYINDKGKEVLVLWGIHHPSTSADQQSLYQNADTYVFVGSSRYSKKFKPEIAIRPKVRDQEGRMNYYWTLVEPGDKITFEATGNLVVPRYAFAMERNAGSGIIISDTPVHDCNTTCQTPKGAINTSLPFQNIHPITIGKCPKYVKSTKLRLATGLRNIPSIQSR

The Kd is the equilibrium constant for the complex coming apart. On to `CC(=O)N[C@H]1[C@H]([C@H](O)[C@H](O)CO)O[C@@](OC[C@H]2O[C@@H](O[C@H]3[C@H](O)[C@@H](NC(C)=O)C(O)O[C@@H]3CO)[C@H](O)[C@@H](O)[C@H]2O)(C(=O)O)C[C@@H]1O` (stereo partly shown) [6′SLN], for which the Kd was above 5 mM.
